≈ marks a conversion by molar mass, not a printed value.
Experiments:
MCF-7 [1] = experiment: Sulforhodamine B antiproliferative assay, 72 h, normal and hypoxia; assay type: cell-based, human; conditions: Homo sapiens, MCF7; hypoxia (<1% of oxygen), 72-hour exposition; read-out: IC50 [µg/ml] MCF-7 hypoxia
In short: (§1)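 Cells at 10^5 cells/mL were given four concentrations within 0.1-100 ug/mL for 72 h at 37° C., under 21% O2 (normal) or <1% O2 (hypoxia). Growth read by sulforhodamine B staining after TCA fixation (A540); MTT (A570) was used for estradiol (200 nM) runs. Mean IC50 ± SD from ≥3 independent triplicate experiments.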

MDA-MB-231 [2] = experiment: as above; assay type: cell-based, human; conditions: Homo sapiens, MDA-MB-231, 72-hour exposition
In short: as §1

MCF-7 [3] = experiment: MTT antiproliferative assay, 72 h, with or without estradiol; assay type: cell-based, human; conditions: 72 hours exposition; for IC50: Homo sapiens, MCF7, MTT
Method: (§2) Anticancer activity of PDI A1-inhibitors has been also tested in vitro in antiproliferative essay in normoxic and hypoxic conditions as well in estrogen-stimulated cancer cells. In the experiment, cells were seeded on 96-well plates (Sarstedt, Germany) in appropriate culture medium at a density of 10^5 cells/mL 24 h before adding the tested compounds. Cells were treated with each compound in four concentrations in the range 0.1-100 ug/mL. […] After 72 h of compound treatment at 37° C., 5 % CO2 humid atmosphere and in wo different oxygen level conditions: 21% - normal and <1% - hypoxia. In some experiments, the MDA-MB-231 and MCF-7 cells were seeded with or without 200 nM estradiol and after 24 h the tested compounds were added. A previously described sulforhodamine B antiproliferative assay was used with minor modifications (Skehan P et al., 1990). Briefly, cells were fixed with 50 µL/well of 50% (w/v) trichloroacetic acid (Avantor Performance Materials, Gliwice, Poland). After 1 h incubation, plates were washed several times with tap water and 50 µL of 0.4% (w/v) solution of sulforhodamine B (Sigma-Aldrich, Germany) in 1% (v/v) acetic acid (Avantor Performance Materials, Gliwice, Poland) was added to each well. After 30 min incubation at room temperature, unbound dye was washed out with 1% (v/v) acetic acid, whereas bound dye was solubilized with 10 mM unbuffered TRIS (Avantor Performance Materials, Gliwice, Poland) solution. The entire procedure was performed using a BioTek EL-406 washing station (BioTek Instruments, USA). After additional 30 min, absorbance was read using a Biotek Hybrid H4 reader (BioTek Instruments, USA) at 540 nm wavelength. MTT assay was used alternatively for HL-60 cell line and in the experiment in which estrogens are added (specified in the table legend). Absorbance was measured using a Biotek Hybrid H4 reader at 570 nm wavelength for MTT assay.
(§3) Compounds at each concentration were tested in triplicate in a single experiment and each experiment was repeated at least three times independently.
(§4) Results of in vitro antiproliferative effects are shown in Table 3 and Table 4 and are presented as mean IC50 ± SD calculated using the Prolab-3 system based on Cheburator 0.4 software.
(§5) Statistical analysis: Unpaired t test. *p<0.05 as compared to appropriate cells not pretreated with estradiol. MTT assay was used for antiproliferative activity assessment.

MDA-MB-231 [4] = experiment: as above; assay type: cell-based, human; conditions: Homo sapiens, MDA-MB-231, 72 hours exposition, MTT
Method: as §2, §3, §4, §5

Caco-2 [5] = experiment: Cell cycle and cell death analysis; assay type: cell-based; conditions: FIG. 1C
Method: (§6) Cell cycle and cell death analysis has been performed as previously described (Milczarek M et al. , 2015). Compounds were tested 5 times independently. Obtained results were analyzed using BD FACSDiva 6.2 software.

HT-29 [6] = experiment: Sulforhodamine B antiproliferative assay, 72 h; assay type: cell-based, human; conditions: Homo sapiens, HT-29; normal (21% of oxygen), 72-hour exposition
In short: as §1

HT-29 [7] = experiment: Cell cycle and cell death analysis; assay type: cell-based, human
Method: as §6

HT-29 [8] = experiment: Caspase-3/7 activity assay; assay type: cell-based, human; conditions: after 24 and 48 h of incubation; compared to control
Method: (§7) Caspase-3/7 activity assay has been performed as previously described (Milczarek M et al., 2015) after 24 and 48 h of incubation with disclosed compounds. Compounds were tested in triplicate in a single experiment and each experiment was repeated three times independently. Results were normalized to the protein content using the SRB method and reported as mean relative caspase-3/7 activity compared to the control sample ± SD.

Caco-2 [9] = experiment: Caspase-3/7 activity assay; assay type: cell-based, human; conditions: after 48 h treatment; compared to control
Method: as §7

HT-29 [10] = experiment: MTT antiproliferative assay, 72 h; assay type: cell-based; conditions: Homo sapiens, 72 hours exposition, read-out: IC50 [µg/ml] HT-29 normal
Method: as §2, §3, §4, §5

HL-60 = experiment: MTT antiproliferative assay, 72 h; assay type: cell-based; conditions: Homo sapiens, 72 hours exposition, read-out: IC50 [µg/ml] HL-60 normal
Method: as §2, §3, §4, §5

Caco-2 [11] = experiment: Sulforhodamine B antiproliferative assay, 72 h; assay type: cell-based, human; conditions: Homo sapiens, Caco-2; normal (21% of oxygen), 72-hour exposition
PDI A1 = molecular target: T1, PDI A1 (Homo sapiens, UniProt P07237); experiment: Insulin turbidometric assay, inhibition of PDI A1; assay type: biochemical; conditions: insulin reduction, turbidity at 650 nm, 60 min incubation at 37° C.; read-out: Inhibition of PDI A1 (EC 50)
T1 construct: purchased Mybiosource; host or cells: E. coli
T1 sequence (P07237 18-508, species assumed): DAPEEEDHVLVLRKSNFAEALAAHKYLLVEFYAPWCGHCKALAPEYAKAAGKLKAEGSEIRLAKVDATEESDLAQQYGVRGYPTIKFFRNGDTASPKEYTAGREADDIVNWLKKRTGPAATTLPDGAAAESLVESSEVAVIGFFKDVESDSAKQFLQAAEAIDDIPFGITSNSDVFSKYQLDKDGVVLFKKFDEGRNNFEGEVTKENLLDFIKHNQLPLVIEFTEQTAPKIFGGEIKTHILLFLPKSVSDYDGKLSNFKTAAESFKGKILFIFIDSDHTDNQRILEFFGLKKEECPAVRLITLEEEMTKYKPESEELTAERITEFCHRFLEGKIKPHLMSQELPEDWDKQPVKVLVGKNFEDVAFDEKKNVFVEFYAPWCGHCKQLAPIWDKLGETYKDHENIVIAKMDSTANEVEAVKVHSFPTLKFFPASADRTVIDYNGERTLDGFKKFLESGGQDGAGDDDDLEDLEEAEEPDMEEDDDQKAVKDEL
In short: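 E. coli-expressed recombinant PDIA1 (10 ug/ml) preincubated with compound 60 min at 37 °C in phosphate buffer pH 7.6, 1 mM EDTA, DTT. Reaction started with insulin (0.15 mM final) and DTT (0.174 mM final). Insulin-reduction turbidity recorded at 650 nm over 120 s against PDI-free reference.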

- IC50 (MCF-7 [3]; 200 nM estradiol, read-out: IC50 [µg/ml] MCF-7 + estradiol): 4 ± 0.2 µg/mL
- IC50 (MDA-MB-231 [4]; 200 nM estradiol, read-out: IC50 [µg/ml] MDA-MB-231 + estradiol): 29.7 ± 1.9 µg/mL
- EC50 (PDI A1): 6 µM
SMILES: COC(=O)C1CN1S(=O)(=O)c1ccccc1 (stereo not drawn) [Compound C-3251, Methyl 1-(benzenesulfonyl)aziridine-2-carboxylate]
- IC50 (MCF-7 [1]): 7.9 ± 6.5 µg/mL (≈ 32.7 µM)
- IC50 (MDA-MB-231 [2]; hypoxia (<1% of oxygen), read-out: IC50 [µg/ml] MDA-MB-231 hypoxia): 26.5 ± 1.3 µg/mL (≈ 110 µM)
- IC50 (MDA-MB-231 [2]; normal (21% of oxygen), read-out: IC50 [µg/ml] MDA-MB-231 normal): 24 ± 6.4 µg/mL (≈ 99.5 µM)
- Selectivity index (SI): IC50 of MCF-10A/ IC50 of MCF-7 (MCF-7 [3]): 6.62
- IC50 (MCF-7 [3]; not pretreated with estradiol, read-out: IC50 [µg/ml] MCF-7 normal): 3.9 ± 0.5 µg/mL (≈ 16.2 µM)
- IC50 (MDA-MB-231 [4]; not pretreated with estradiol, read-out: IC50 [µg/ml] MDA-MB-231 normal): 26.6 ± 2.3 µg/mL (≈ 110 µM)
- Cell cycle distribution, CaCo-2 (Caco-2 [5]): increased the percentage of CaCo-2 cells in S cell cycle phase
- IC50 (HT-29 [6]): 30.2 ± 4.7 µg/mL (≈ 125 µM)
- Cell cycle distribution, HT-29 (HT-29 [7]; FIG. 1C): decreased HT-29 cells in G0/G1 and increased in G2/M phase
- Percentage of death cells, HT-29 (HT-29 [7]; FIG. 1D): increased significantly the percentage of death HT-29 cells
- Caspase 3/7 activity, HT-29 (HT-29 [8]): significantly increase caspase 3/7 activity
- Caspase 3/7 activity, Caco-2 (Caco-2 [9]): significantly increase caspase 3/7 activity
- IC50 (HT-29 [10]): 37.2 ± 8.4 µg/mL (≈ 154 µM)
- IC50 (HL-60): 1.5 ± 0.1 µg/mL (≈ 6.22 µM)
- IC50 (Caco-2 [11]): 3.4 ± 0.2 µg/mL (≈ 14.1 µM)
